PubChem BioAssay AID248 (DTP/NCI, 2004)
Values joined by “and” are separate entries in the source; they are usually repeats but may differ in a detail not shown here. Identical values can stand only once. Inconclusive results and toxic doses are left out. No stated cut-off is given here; in the data, active means T/C of 150% or more; inactive means T/C below 125%.

Tested on: L1210 leukemia ip in BDF1 mice, survival T/C
Assay: NCI In Vivo Anticancer Drug Screen. Data for tumor model L1210 Leukemia (intraperitoneal) in B6D2F1 (BDF1) mice
Conditions: endpoint: mean survival time, higher = longer survival
Procedure, shortened: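 In this screen, tumor-bearing mice given compound are compared to those given vehicle, and their survival values are reported as a treated-to-control quotient.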

[1] = dose: 100.0 mg/kg/injection, schedule: Q01DX001 (ip), vehicle: Klucel (hydroxypropylcellulose) (HPC)
[2] = dose: 200.0 mg/kg/injection, schedule: Q01DX001 (ip), vehicle: Klucel (hydroxypropylcellulose) (HPC)
[3] = dose: 400.0 mg/kg/injection, schedule: Q01DX001 (ip), vehicle: Klucel (hydroxypropylcellulose) (HPC)
[4] = dose: 100.0 mg/kg/injection, schedule: Q01DX009 (ip), vehicle: Klucel (hydroxypropylcellulose) (HPC)
[5] = dose: 100.0 mg/kg/injection, schedule: Q04DX003 (ip), vehicle: Klucel (hydroxypropylcellulose) (HPC)
[6] = dose: 200.0 mg/kg/injection, schedule: Q01DX009 (ip), vehicle: Klucel (hydroxypropylcellulose) (HPC)
[7] = dose: 200.0 mg/kg/injection, schedule: Q04DX003 (ip), vehicle: Klucel (hydroxypropylcellulose) (HPC)
[8] = dose: 400.0 mg/kg/injection, schedule: Q01DX009 (ip), vehicle: Klucel (hydroxypropylcellulose) (HPC)
[9] = dose: 400.0 mg/kg/injection, schedule: Q04DX003 (ip), vehicle: Klucel (hydroxypropylcellulose) (HPC)
[10] = dose: 100.0 mg/kg/injection, schedule: Q04DX002 (ip), vehicle: saline
[11] = dose: 200.0 mg/kg/injection, schedule: Q04DX002 (ip), vehicle: saline
[12] = dose: 400.0 mg/kg/injection, schedule: Q04DX002 (ip), vehicle: saline
[13] = dose: 100.0 mg/kg/injection, schedule: Q04DX003 (ip), vehicle: saline
[14] = dose: 200.0 mg/kg/injection, schedule: Q04DX003 (ip), vehicle: saline
[15] = dose: 25.0 mg/kg/injection, schedule: Q04DX002 (ip), vehicle: saline with Tween-80
[16] = dose: 50.0 mg/kg/injection, schedule: Q04DX002 (ip), vehicle: saline with Tween-80
[17] = dose: 100.0 mg/kg/injection, schedule: Q04DX002 (ip), vehicle: saline with Tween-80

Measured: T/C

O=S(=O)(O)CCCBr
inactive: dose: 100.0 mg/kg/injection, schedule: Q04DX003 (ip), vehicle: acetone 96 % of control | dose: 200.0 mg/kg/injection, schedule: Q04DX003 (ip), vehicle: acetone 95 % of control | dose: 400.0 mg/kg/injection, schedule: Q04DX003 (ip), vehicle: acetone 87 % of control

CCO[Si](CC)(CC)CC
inactive: dose: 100.0 mg/kg/injection, schedule: Q01DX009 (ip), vehicle: saline 100 % of control | dose: 200.0 mg/kg/injection, schedule: Q01DX009 (ip), vehicle: saline 98 % of control | dose: 400.0 mg/kg/injection, schedule: Q01DX009 (ip), vehicle: saline 102 % of control

O=C1NC2(c3ccccc3)CCCCC2O1 (configuration not stated)
inactive: dose: 75.0 mg/kg/injection, schedule: Q01DX001 (ip), vehicle: acetone 98 % of control and 92 % of control | dose: 150.0 mg/kg/injection, schedule: Q01DX001 (ip), vehicle: acetone 102 % of control | dose: 300.0 mg/kg/injection, schedule: Q01DX001 (ip), vehicle: acetone 100 % of control and 89 % of control

COc1cccc2c1CCC1C2CC=C2CC3(CCC21C)OCCO3 (configuration not stated)
inactive: dose: 100.0 mg/kg/injection, schedule: Q01DX009 (sc), vehicle: steriod suspending solution 102 % of control | dose: 200.0 mg/kg/injection, schedule: Q01DX009 (sc), vehicle: steriod suspending solution 102 % of control | dose: 400.0 mg/kg/injection, schedule: Q01DX009 (sc), vehicle: steriod suspending solution 101 % of control

CCCCCCCCCCSCCCCCCCCSCCCCCCCCCC
inactive: [1] 94 % of control | [2] 87 % of control | [3] 96 % of control

N#CCCN(C(=S)Nc1cccc(C(F)(F)F)c1)C1CCCCC1
inactive: [1] 96 % of control | [4] 107 % of control and 108 % of control | dose: 100.0 mg/kg/injection, schedule: Q04DX002 (ip), vehicle: Klucel (hydroxypropylcellulose) (HPC) 102 % of control and 104 % of control | [5] 98 % of control | [2] 90 % of control | [6] 101 % of control and 107 % of control | dose: 200.0 mg/kg/injection, schedule: Q04DX002 (ip), vehicle: Klucel (hydroxypropylcellulose) (HPC) 108 % of control and 114 % of control | [7] 97 % of control | [3] 98 % of control | [8] 96 % of control and 112 % of control | dose: 400.0 mg/kg/injection, schedule: Q04DX002 (ip), vehicle: Klucel (hydroxypropylcellulose) (HPC) 100 % of control and 101 % of control | [9] 97 % of control

O=C1c2ccccc2C(=O)N1CNc1cccc(NCN2C(=O)c3ccccc3C2=O)n1
inactive: dose: 100.0 mg/kg/injection, schedule: Q01DX009 (ip), vehicle: saline with Tween-80 92 % of control | dose: 200.0 mg/kg/injection, schedule: Q01DX009 (ip), vehicle: saline with Tween-80 91 % of control | dose: 400.0 mg/kg/injection, schedule: Q01DX009 (ip), vehicle: saline with Tween-80 93 % of control

CCOC(=O)C1(c2ccccc2)CCCNC1=O (configuration not stated)
inactive: [10] 107 % of control | [11] 89 % of control | [12] 100 % of control

CC(C)(C)c1ccc(C(c2ccc(C(C)(C)C)cc2)C(Cl)Cl)cc1
inactive: [5] 113 % of control | [7] 96 % of control | [9] 97 % of control

O=C(O)c1cc2ccccc2cc1O
inactive: dose: 100.0 mg/kg/injection, schedule: Q04DX002 (ip), vehicle: gum acacia 102 % of control | dose: 200.0 mg/kg/injection, schedule: Q04DX002 (ip), vehicle: gum acacia 94 % of control

O=P(OCCCl)(OCCCl)C(c1ccccc1)(c1ccccc1)c1ccccc1
inactive: [4] 105 % of control | [6] 96 % of control | [8] 93 % of control

CC(=O)NO
inactive: [10] 102 % of control | [11] 112 % of control | [12] 108 % of control

Nc1nc(N)c2cc(S(=O)(=O)c3ccc4ccccc4c3)ccc2n1
inactive: [4] 91 % of control | [5] 98 % of control | [6] 94 % of control | [7] 96 % of control | [9] 98 % of control

CN1C(=O)C/C(=C/[N+](=O)[O-])c2ccccc21
inactive: dose: 50.0 mg/kg/injection, schedule: Q01DX001 (ip), vehicle: carboxymethylcellulose (CMC) 101 % of control | dose: 100.0 mg/kg/injection, schedule: Q01DX001 (ip), vehicle: carboxymethylcellulose (CMC) 97 % of control

CCCN(CCC)CC(C)O (configuration not stated)
inactive: [13] 93 % of control | [14] 97 % of control

CC1(N)COP(=O)(Nc2ccccc2)OC1 (configuration not stated)
inactive: dose: 44.4 mg/kg/injection, schedule: Q01DX001 (ip), vehicle: carboxymethylcellulose (CMC) 101 % of control | dose: 66.7 mg/kg/injection, schedule: Q01DX001 (ip), vehicle: carboxymethylcellulose (CMC) 101 % of control | dose: 150.0 mg/kg/injection, schedule: Q01DX001 (ip), vehicle: carboxymethylcellulose (CMC) 107 % of control | dose: 200.0 mg/kg/injection, schedule: Q01DX001 (ip), vehicle: carboxymethylcellulose (CMC) 92 % of control | dose: 400.0 mg/kg/injection, schedule: Q01DX001 (ip), vehicle: carboxymethylcellulose (CMC) 103 % of control

CCN(CC)CCC(C#N)(CC=C(C)C)c1cccc2ccccc12 (configuration not stated)
inactive: dose: 12.5 mg/kg/injection, schedule: Q01DX009 (ip), vehicle: Klucel (hydroxypropylcellulose) (HPC) 100 % of control | dose: 25.0 mg/kg/injection, schedule: Q01DX009 (ip), vehicle: Klucel (hydroxypropylcellulose) (HPC) 110 % of control | dose: 50.0 mg/kg/injection, schedule: Q01DX009 (ip), vehicle: Klucel (hydroxypropylcellulose) (HPC) 97 % of control

CCCCC[C@H](O)/C=C/[C@H]1[C@H](O)CC(=O)[C@@H]1C/C=C\CCCC(=O)O
inactive: dose: 0.37 mg/kg/injection, schedule: Q04DX002 (ip), vehicle: Klucel (hydroxypropylcellulose) (HPC) 100 % of control | dose: 0.75 mg/kg/injection, schedule: Q04DX002 (ip), vehicle: Klucel (hydroxypropylcellulose) (HPC) 103 % of control | dose: 1.5 mg/kg/injection, schedule: Q04DX002 (ip), vehicle: Klucel (hydroxypropylcellulose) (HPC) 111 % of control | dose: 3.0 mg/kg/injection, schedule: Q04DX002 (ip), vehicle: Klucel (hydroxypropylcellulose) (HPC) 118 % of control | dose: 6.0 mg/kg/injection, schedule: Q04DX002 (ip), vehicle: Klucel (hydroxypropylcellulose) (HPC) 96 % of control | dose: 12.0 mg/kg/injection, schedule: Q04DX002 (ip), vehicle: Klucel (hydroxypropylcellulose) (HPC) 96 % of control | dose: 24.0 mg/kg/injection, schedule: Q04DX002 (ip), vehicle: Klucel (hydroxypropylcellulose) (HPC) 100 % of control | [15] 98 % of control | [16] 98 % of control | [17] 105 % of control | dose: 200.0 mg/kg/injection, schedule: Q04DX002 (ip), vehicle: saline with Tween-80 102 % of control | dose: 400.0 mg/kg/injection, schedule: Q04DX002 (ip), vehicle: saline with Tween-80 98 % of control

O=C1CC(c2ccc(Cl)cc2)C(=O)O1 (configuration not stated)
inactive: dose: 100.0 mg/kg/injection, schedule: Q01DX001 (ip), vehicle: acetone 98 % of control | dose: 100.0 mg/kg/injection, schedule: Q04DX003 (ip), vehicle: alcohol 98 % of control | dose: 200.0 mg/kg/injection, schedule: Q01DX001 (ip), vehicle: acetone 101 % of control | dose: 200.0 mg/kg/injection, schedule: Q04DX003 (ip), vehicle: alcohol 104 % of control | dose: 400.0 mg/kg/injection, schedule: Q01DX001 (ip), vehicle: acetone 94 % of control

C=CCOC(=O)C1c2ccccc2Cc2ccccc21
inactive: dose: 100.0 mg/kg/injection, schedule: Q04DX003 (ip), vehicle: saline with Tween-80 97 % of control | dose: 200.0 mg/kg/injection, schedule: Q04DX003 (ip), vehicle: saline with Tween-80 97 % of control | dose: 400.0 mg/kg/injection, schedule: Q04DX003 (ip), vehicle: saline with Tween-80 95 % of control

O=S(=O)(ON1C=CC=CC1)ON1C=CC=CC1
inactive: [15] 106 % of control | [16] 95 % of control | [17] 106 % of control

O=C(O)Cc1ccc2c(c1)C(=O)C(=O)N2
inactive: [13] 95 % of control | [14] 102 % of control | dose: 400.0 mg/kg/injection, schedule: Q04DX003 (ip), vehicle: saline 89 % of control
